# Source: doi:10.1101/2024.08.19.608619, “Discovery of potent SARS-CoV-2 nsp3 macrodomain inhibitors uncovers lack of translation to cellular antiviral response” (bioRxiv, 2024)
# Like-named read-outs stand apart in the source and are kept apart here.
# Columns and labels:
# SARS-CoV-2 nsp3-mac1 [1] = molecular target: T1, SARS-CoV-2 nsp3-mac1 (Severe acute respiratory syndrome coronavirus 2, UniProt P0DTD1); experiment: biochemical; parameters: SARS-CoV-2 nsp3 macrodomain TR-FRET single point, per cent inhibition, n=2
# SARS-CoV-2 nsp3-mac1 [2] = molecular target: T1, SARS-CoV-2 nsp3-mac1; experiment: biochemical; format: biochemical; details: SARS-CoV-2 nsp3 macrodomain TR-FRET single point, concentration 50.0 uM
Compound,perc_inhibition_mean (SARS-CoV-2 nsp3-mac1 [2]),further results
Cc1nc(NC(=O)[C@@H]2CCCOC2)c2ccnc-2[nH]1 [ASAP-0000078],-3.202%,"inhibition at 50 µM (SARS-CoV-2 nsp3-mac1 [1]; read-out: perc_inhibition_mean, batch_name=ASAP-0000078-001): -3.2%"
O=C(Nc1cnc2[nH]ncc2c1)c1cc(C2CC2)[nH]c1C1CC1 [ASAP-0000079],-23.613%,"inhibition at 50 µM (SARS-CoV-2 nsp3-mac1 [1]; read-out: perc_inhibition_mean, batch_name=ASAP-0000079-001): -23.6%"
O[C@H]1C[C@](CNc2ncnc3[nH]ccc23)(c2ccccc2)C1 [ASAP-0000080],11.369%,"inhibition at 50 µM (SARS-CoV-2 nsp3-mac1 [1]; read-out: perc_inhibition_mean, batch_name=ASAP-0000080-001): 11.4%"
Cc1[nH]c2ncnc(NC(=O)CCc3ccccc3)c2c1C [ASAP-0000081],5.021%,"inhibition at 50 µM (SARS-CoV-2 nsp3-mac1 [1]; read-out: perc_inhibition_mean, batch_name=ASAP-0000081-001): 5.02%"
CCC[C@@](C)(NC(=O)c1ncnc2[nH]ccc12)C(=O)OC [ASAP-0000082],-6.621%,"inhibition at 50 µM (SARS-CoV-2 nsp3-mac1 [1]; read-out: perc_inhibition_mean, batch_name=ASAP-0000082-001): -6.62%"
Oc1ccccc1CNc1ncnc2[nH]cnc12 [ASAP-0000083],1.904%,"inhibition at 50 µM (SARS-CoV-2 nsp3-mac1 [1]; read-out: perc_inhibition_mean, batch_name=ASAP-0000083-001): 1.9%"
Cc1nn(Cc2ccccc2)c(C)c1CNc1ncnc2[nH]ncc12 [ASAP-0000084],-1.755%,"inhibition at 50 µM (SARS-CoV-2 nsp3-mac1 [1]; read-out: perc_inhibition_mean, batch_name=ASAP-0000084-001): -1.75%"
c1ccc2sc([C@@H]3CCCN(c4ncnc5[nH]ccc45)C3)nc2c1 [ASAP-0000085],-0.779%,"inhibition at 50 µM (SARS-CoV-2 nsp3-mac1 [1]; read-out: perc_inhibition_mean, batch_name=ASAP-0000085-001): -0.779%"
COc1ccc(Nc2ncnc3[nH]ncc23)c(OC)c1 [ASAP-0000086],2.597%,"inhibition at 50 µM (SARS-CoV-2 nsp3-mac1 [1]; read-out: perc_inhibition_mean, batch_name=ASAP-0000086-001): 2.6%"
CCc1nc(CN(C)c2nc(C)nc3[nH]ccc23)cs1 [ASAP-0000087],-6.131%,"inhibition at 50 µM (SARS-CoV-2 nsp3-mac1 [1]; read-out: perc_inhibition_mean, batch_name=ASAP-0000087-001): -6.13%"
FC(F)(F)c1nc(NC[C@H]2CCCO2)c2nc[nH]c2n1 [ASAP-0000088],2.501%,"inhibition at 50 µM (SARS-CoV-2 nsp3-mac1 [1]; read-out: perc_inhibition_mean, batch_name=ASAP-0000088-001): 2.5%"
COCc1nc(CNc2c(C#N)c(C)nn2C)cs1 [ASAP-0000089],0.8%,"inhibition at 50 µM (SARS-CoV-2 nsp3-mac1 [1]; read-out: perc_inhibition_mean, batch_name=ASAP-0000089-001): 0.8%"
Cc1[nH]c2ncnc(NC(=O)[C@@H]3CCO[C@@H]3C)c2c1C [ASAP-0000090],35.092%,"inhibition at 50 µM (SARS-CoV-2 nsp3-mac1 [1]; read-out: perc_inhibition_mean, batch_name=ASAP-0000090-001): 35.1%"
O=C1CC[C@H](COC(=O)c2ncnc3[nH]ccc23)CCN1 [ASAP-0000091],-7.865%,"inhibition at 50 µM (SARS-CoV-2 nsp3-mac1 [1]; read-out: perc_inhibition_mean, batch_name=ASAP-0000091-001): -7.87%"
c1ccc2c(-c3c[nH]c4ncccc34)n[nH]c2c1 [ASAP-0000092],-7.254%,"inhibition at 50 µM (SARS-CoV-2 nsp3-mac1 [1]; read-out: perc_inhibition_mean, batch_name=ASAP-0000092-001): -7.25%"
CCO[C@@H]1C[C@@H](Nc2ncnc3[nH]ccc23)C12CCOCC2 [ASAP-0000093],2.316%,"inhibition at 50 µM (SARS-CoV-2 nsp3-mac1 [1]; read-out: perc_inhibition_mean, batch_name=ASAP-0000093-001): 2.32%"
O=C1C[C@@]2(CCCN(c3ncnc4[nH]ccc34)C2)CN1 [ASAP-0000094],-2.451%,"inhibition at 50 µM (SARS-CoV-2 nsp3-mac1 [1]; read-out: perc_inhibition_mean, batch_name=ASAP-0000094-001): -2.45%"
Cn1nc(NCc2cc3c(=O)[nH]ccc3o2)c2nccnc21 [ASAP-0000095],-1.007%,"inhibition at 50 µM (SARS-CoV-2 nsp3-mac1 [1]; read-out: perc_inhibition_mean, batch_name=ASAP-0000095-001): -1.01%"
Cn1ncc2c(NCc3ncccc3O)ncnc21 [ASAP-0000096],3.893%,"inhibition at 50 µM (SARS-CoV-2 nsp3-mac1 [1]; read-out: perc_inhibition_mean, batch_name=ASAP-0000096-001): 3.89%"
O=S(=O)(Nc1ncccn1)c1ccc2oc3ccccc3c2c1 [ASAP-0000097],-3.004%,"inhibition at 50 µM (SARS-CoV-2 nsp3-mac1 [1]; read-out: perc_inhibition_mean, batch_name=ASAP-0000097-001): -3%"
COCc1nc(CNc2ncc3c(n2)COC3)cs1 [ASAP-0000098],-7.137%,"inhibition at 50 µM (SARS-CoV-2 nsp3-mac1 [1]; read-out: perc_inhibition_mean, batch_name=ASAP-0000098-001): -7.14%"
Cn1nc(NC(=O)c2cc(-c3ccco3)[nH]n2)c2nccnc21 [ASAP-0000099],-5.398%,"inhibition at 50 µM (SARS-CoV-2 nsp3-mac1 [1]; read-out: perc_inhibition_mean, batch_name=ASAP-0000099-001): -5.4%"
O=S(=O)(NC[C@H]1CCOC1)c1cn2c(n1)CCCC2 [ASAP-0000100],-3.203%,"inhibition at 50 µM (SARS-CoV-2 nsp3-mac1 [1]; read-out: perc_inhibition_mean, batch_name=ASAP-0000100-001): -3.2%"
Cc1nc2cnccn2c1NC(=O)c1cc(-c2ccco2)[nH]n1 [ASAP-0000101],-3.884%,"inhibition at 50 µM (SARS-CoV-2 nsp3-mac1 [1]; read-out: perc_inhibition_mean, batch_name=ASAP-0000101-001): -3.88%"
